Reference: patent US20190194179A1, “ANTIBIOTIC COMPOUNDS” (DISCUVA LTD., priority 2016, published 2019)
pIC50: −log10 of the molar value. Counter-ions that a name gives are not always drawn.

test system: Neisseria gonorrhoeae; test: EC50 determination: plate-based broth growth assay (absorbance at 600 nm) of Neisseria gonorrhoeae; type: cell-based; details: absorbance 600 nm after 20 hours at 37° C./5% CO2, read-out: IC50 (Inhibitory concentration) against Neisseria gonorrhoeae
Experimental: Actively growing Neisseria gonorrhoeae on GC agar (based on; Spence et. al. (2008): Curr. Protoc. Microbiol. 8:4A.1.1-4A.1.26) plates are harvested and transferred to GC broth (based on; Spence et al (2008): Curr. Protoc. Microbiol. 8:4A.1.1-4A.1.26) to generate a liquid stock. This culture is allowed to establish and grow to mid-log phase (at 37° C./5% CO2), finally this culture is diluted (˜10^5 cells/ml) to generate a seed inoculum to establish plate-based broth assays. EC50 values were determined by assaying growth (absorbance read at 600 nm, after 20 hours at 37° C./5% CO2) of Neisseria gonorrhoeae across a 10-point dilution series of the test compound. The EC50 value is determined from transformed data to identify the concentration of compound giving a 50% response relative to control samples (no compound).

Row | pIC50 | Structure (SMILES)
1 | ≥ 6.00 | FC(F)(F)c1ccc2oc(Nc3nnc(CN4CCCC4)o3)nc2c1 [Example 71, N-(5-(Pyrrolidin-1-ylmethyl)-1,3,4-oxadiazol-2-yl)-5-(trifluoromethyl)benzo[d]oxazol-2-amine]
2 | ≥ 4.00 | FC(F)(F)c1ccc2oc(Nc3nnc(C(F)(F)F)o3)nc2c1 [Example 110, 5-(Trifluoromethyl)-N-(5-(trifluoromethyl)-1,3,4-oxadiazol-2-yl)benzo[d]oxazol-2-amine]
3 | ≥ 6.00 | NC(=O)c1csc(Nc2nc3cc(C(F)(F)F)ccc3o2)n1 [Example 21, 2-((5-(Trifluoromethyl)benzo[d]oxazol-2-yl)amino)thiazole-4-carboxamide]
4 | ≥ 6.00 | Cc1nnc(Nc2nc3cc(C(F)(F)F)ccc3n2C)o1 [Example 88, 5-Methyl-N-(1-methyl-5-(trifluoromethyl)-1H-benzo[d]imidazol-2-yl)-1,3,4-oxadiazol-2-amine]
5 | ≥ 6.00 | FC(F)(F)c1ccc2oc(Nc3nnc(CN4CCCCC4)o3)nc2c1 [Example 72, N-(5-(Piperidin-1-ylmethyl)-1,3,4-oxadiazol-2-yl)-5-(trifluoromethyl)benzo[d]oxazol-2-amine]
6 | ≥ 6.00 | Cn1cnnc1Nc1nc2cc(C(F)(F)F)ccc2o1 [Example 41, N-(4-methyl-4H-1,2,4-triazol-3-yl)-5-(trifluoromethyl)benzo[d]oxazol-2-amine]
7 | ≥ 6.00 | Cc1nnc(Nc2nc3ccc(C(F)(F)F)cc3n2C)o1 [Example 89, 5-Methyl-N-(1-methyl-6-(trifluoromethyl)-1H-benzo[d]imidazol-2-yl)-1,3,4-oxadiazol-2-amine]
8 | ≥ 4.00 | NC(=O)c1nnc(Nc2nc3ccc(C(F)(F)F)cc3o2)o1 [Example 102, 5-((6-(Trifluoromethyl)benzo[d]oxazol-2-yl)amino)-1,3,4-oxadiazole-2-carboxamide]
9 | ≥ 5.00 | N#CC1CCN(Cc2nnc(Nc3nc4cc(C(F)(F)F)ccc4o3)o2)C1 (centres unmarked) [Example 76, 1-((5-((5-(triFluoromethyl)benzo[d]oxazol-2-yl)amino)-1,3,4-oxadiazol-2-yl)methyl)pyrrolidine-3-carbonitrile]
10 | ≥ 6.00 | CCOC(=O)c1nnc(Nc2nc3cc(C(F)(F)F)ccc3o2)o1 [Example 52, Ethyl 5-((5-(trifluoromethyl)benzo[d]oxazol-2-yl)amino)-1,3,4-oxadiazole-2-carboxylate]
11 | ≥ 4.00 | O=C(NC1CC1)c1nnc(Nc2nc3ccc(C(F)(F)F)cc3o2)o1 [Example 30, N-Cyclopropyl-5-((6-(trifluoromethyl)benzo[d]oxazol-2-yl)amino)-1,3,4-oxadiazol-2-carboxamide]
12 | ≥ 6.00 | CCOC(=O)c1csc(Nc2nc3cc(C(F)(F)F)ccc3o2)n1 [Example 8, Ethyl 2-((5-(trifluoromethyl)benzo[d]oxazol-2-yl)amino)thiazole-4-carboxylate]
13 | ≥ 6.00 | FC(F)(F)c1ccc2oc(Nc3nnc[nH]3)nc2c1 [Example 116, N-(4H-1,2,4-Triazol-3-yl)-5-(trifluoromethyl)benzo[d]oxazol-2-amine]
14 | ≥ 7.00 | FC(F)(F)c1cc2oc(Nc3nnco3)nc2cc1Cl [Example 149, 5-Chloro-N-(1,3,4-oxadiazol-2-yl)-6-(trifluoromethyl)benzo[d]oxazol-2-amine]
15 | ≥ 6.00 | Cc1nnc(Nc2nc3ccc(C(F)(F)F)cc3[nH]2)o1 [Example 83, 5-Methyl-N-(6-(trifluoromethyl)-1H-benzo[d]imidazol-2-yl)-1,3,4-oxadiazol-2-amine]
16 | ≥ 4.00 | FC(F)(F)c1ccc2oc(Nc3nnc(CN4CCNCC4)o3)nc2c1 [Example 147, N-(5-(Piperazin-1-ylmethyl)-1,3,4-oxadiazol-2-yl)-5-(trifluoromethyl)benzo[d]oxazol-2-amine hydrochloride]
17 | ≥ 4.00 | CC(C)(C)OC(=O)N1CCN(c2nnc(Nc3nc4cc(C(F)(F)F)ccc4o3)o2)CC1 [Example 148, tert-butyl 4-(5-((5-(trifluoromethyl)benzo[d]oxazol-2-yl)amino)-1,3,4-oxadiazol-2-yl)piperazine-1-carboxylate]

The remaining lines, values behind:

Row | Structure (SMILES) | pIC50
18 | c1nnc(Nc2nc3ccc(N4CCOCC4)cc3o2)o1 [Example 185, 6-Morpholino-N-(1,3,4-oxadiazol-2-yl)benzo[d]ox-azol-2-amine] | ≥ 5.00
19 | O=C(NC1CC1)c1csc(Nc2nc3cc(F)ccc3o2)n1 [Example 18, N-Cyclopropyl-2-((5-fluorobenzo[d]oxazol-2-yl)amino)thiazole-4-carboxamide] | ≥ 6.00
20 | C#Cc1nnc(Nc2nc3ccc(Cl)cc3o2)o1 [Example 194, 6-Chloro-N-(5-ethynyl-1,3,4-oxadiazol-2-yl)benzo[d]oxazol-2-amine] | ≥ 7.00
21 | Cc1nnc(Nc2nc3c(Cl)cc(Cl)cc3o2)[nH]1 [Example 123, 4,6-Dichloro-N-(5-methyl-4H-1,2,4-triazol-3-yl)benzo[d]oxazol-2-amine] | ≥ 6.00
22 | Clc1ccc2oc(Nc3nc4ccccc4o3)nc2c1 [Example 162, N-(Benzo[d]oxazol-2-yl)-5-chlorobenzo[d] oxazol-2-amine] | ≥ 7.00
23 | NC(=O)c1nnc(Nc2nc3ccc(F)cc3o2)o1 [Example 201, 5-((6-Fluorobenzo[d]oxazol-2-yl)amino)-1,3,4-oxadiazole-2-carboxamide] | ≥ 4.00
24 | O=C(c1nnc(Nc2nc3c(Cl)cccc3o2)o1)N1CCCC1 [Example 134, (5-((4-Chlorobenzo[d]oxazol-2-yl)amino)-1,3,4-oxadiazol-2-yl)(pyrrolidin-1-yl)methanone] | ≥ 5.00
25 | NC(=O)c1csc(Nc2nc3cc(C(F)(F)F)c(Cl)cc3o2)n1 [Example 34, 2-((6-Chloro-5-(trifluoromethyl)benzo[d]oxazol-2-yl)amino)thiazole-4-carboxamide] | ≥ 6.00
26 | FC(F)(F)c1cc2nc(Nc3nnco3)oc2cc1Cl [Example 138, 6-Chloro-N-(1,3,4-oxadiazol-2-yl)-5-(trifluoromethyl)benzo[d]oxazol-2-amine] | ≥ 7.00
27 | Cc1nnc(Nc2nc3c(F)cccc3[nH]2)o1 [Example 87, N-(4-Fluoro-1H-benzo[d]imidazol-2-yl)-5-methyl-1,3,4-oxadiazol-2-amine] | ≥ 6.00
28 | Clc1ccc2nc(Nc3nnc(C4CCOC4)o3)oc2c1 (centres unmarked) [Example 199, 6-Chloro-N-(5-(tetrahydrofuran-3-yl)-1,3,4-oxadiazol-2-yl)benzo[d]oxa-zol-2-amine] | ≥ 6.00
29 | Cc1nnc(Nc2nc3cncc(Cl)c3o2)o1 [Example 64, 7-Chloro-N-(5-methyl-1,3,4-oxadiazol-2-yl)oxazolo[4,5-c]pyridin-2-amine] | ≥ 5.00
30 | Oc1ccc2nc(Nc3nnco3)oc2c1 [Example 177, 2-((1,3,4-Oxadiazol-2-yl)amino)ben-zo[d]oxazol-6-ol] | ≥ 5.00
31 | Cc1nnc(Nc2nc3cccc(Cl)c3o2)[nH]1 [Example 121, 7-Chloro-N-(5-methyl-4H-1,2,4-triazol-3-yl)benzo[d]oxazol-2-amine] | ≥ 7.00
32 | COc1cc2nc(Nc3nnco3)oc2cc1Cl [Example 204, 6-chloro-5-methoxy-N-(1,3,4-oxadiazol-2-yl)benzo[d]oxa-zol-2-amine] | ≥ 6.00
33 | FC(F)(F)c1ccc2[nH]c(Nc3nnco3)nc2c1 [Example 68, N-(5-(Trifluoromethyl)-1H-benzo[d]imidazol-2-yl)-1,3,4-oxadiazol-2-amine] | ≥ 6.00
34 | CCOC(=O)c1nnc(Nc2nc3ccc(Cl)cc3o2)o1 [Example 61, Ethyl 5-((6-chlorobenzo[d]oxazol-2-yl)amino)-1,3,4-oxadiazole-2-carboxylate] | ≥ 7.00
35 | Cc1cc2oc(Nc3nnco3)nc2cc1F [Example 197, 5-Fluoro-6-methyl-N-(1,3,4-oxadiazol-2-yl)benzo[d]oxazol-2-amine] | ≥ 7.00
36 | CCOC(=O)c1nnc(Nc2nc3cc(C(F)(F)F)c(Cl)cc3o2)o1 [Example 65, Ethyl 5-((6-chloro-5-(trifluoromethyl)benzo[d]oxazol-2-yl)amino)-1,3,4-oxadiazole-2-carboxylate] | ≥ 7.00
37 | Cc1cc2nc(Nc3nnco3)oc2cc1F [Example 203, 6-Fluoro-5-methyl-N-(1,3,4-oxadiazol-2-yl)benzo[d]oxa-zol-2-amine] | ≥ 7.00
38 | CC(C)NC(=O)c1csc(Nc2nc3cc(C(F)(F)F)ccc3o2)n1 [Example 4, N-Isopropyl-2-((5-(trifluoromethyl)benzo[d]oxazol-2-yl)amino)thiazole-4-carboxamide] | ≥ 6.00
39 | Cc1nnc(Nc2nc3cnccc3o2)o1 [Example 58, N-(5-Methyl-1,3,4-oxadiazol-2-yl)oxazolo[4,5-c]pyridin-2-amine] | ≥ 5.00
40 | Clc1ccc2oc(Nc3cscn3)nc2c1 [Example 173, 5-Chloro-N-(thiazol-4-yl)benzo[d]oxazol-2-amine] | ≥ 5.00
41 | O=C(c1csc(Nc2nc3cc(C(F)(F)F)ccc3o2)n1)N1CCNCC1 [Example 95, Piperazin-1-yl(2-((5-(trifluoromethyl)benzo[d]oxazol-2-yl)amino)thiazol-4-yl)methanone hydrochloride] | ≥ 6.00
42 | O=C(Nc1ccccc1)c1csc(Nc2nc3cc(C(F)(F)F)ccc3o2)n1 [Example 5, N-Phenyl-2-((5-(trifluoromethyl)benzo[d]oxazol-2-yl)amino)thiazole-4-carboxamide] | ≥ 6.00
43 | FC(F)(F)c1ccc2oc(Nc3nc(Cl)cs3)nc2c1 [Example 100, N-(4-Chlorothiazol-2-yl)-5-(trifluoromethyl)benzo[d]oxazol-2-amine] | ≥ 6.00
44 | Fc1cc2nc(Nc3nnco3)oc2cc1OC(F)(F)F [Example 174, 5-Fluoro-N-(1,3,4-oxadiazol-2-yl)-6-(trifluoromethoxy)benzo[d]oxazol-2-amine] | ≥ 7.00
